Results reported in patent EP4603105A1, “PHARMACEUTICAL COMPOSITION CONTAINING CYCLIC COMPOUND HAVING SELECTIVE KRAS INHIBITORY EFFECT AGAINST HRAS AND NRAS” (CHUGAI SEIYAKU KABUSHIKI KAISHA, priority 2022, dated 2024).
Where a SMILES comes first, the peptide text is derived from it. Bridges are numbered along the chain shown (N, C = ends). [ ]: non-standard residue; d: D form. The star is where a group is joined. hPhe(3-Cl-4-CF3) = N[C@@H](CCc1ccc(C(F)(F)F)c(Cl)c1)C(=O)O; NEtPhe(4-Me) = CCN[C@@H](Cc1ccc(C)cc1)C(=O)O; NMePhe(4-Me) = CN[C@@H](Cc1ccc(C)cc1)C(=O)O; NMeGly(cPent) = CN[C@H](C(=O)O)C1CCCC1; Hyp = O=C(O)[C@@H]1C[C@@H](O)CN1; NMeF = CN[C@@H](Cc1ccccc1)C(=O)O; NMeD = CN[C@@H](CC(=O)O)C(=O)O; NMeL = CN[C@@H](CC(C)C)C(=O)O; NMeV = CN[C@H](C(=O)O)C(C)C; Morpholide = C1CN(*)CCO1; NMeA = CN[C@@H](C)C(=O)O; Ac5c = NC1(C(=O)O)CCCC1; Aze = O=C(O)[C@@H]1CCN1; NBuGly = CCCCNCC(=O)O; NPrGly = CCCNCC(=O)O; NEtG = CCNCC(=O)O; Sar = CNCC(=O)O

Legend:
[1] = target: GDP-bound NRAS wild-type protein (Homo sapiens, UniProt P01111); test: Binding to NRAS by surface plasmon resonance (SPR), KD and KD ratio to KRAS; conditions: ratio of KD for GDP-bound NRAS wild-type protein to KD for KRAS
Sequence of GDP-bound NRAS wild-type protein (P01111 whole entry): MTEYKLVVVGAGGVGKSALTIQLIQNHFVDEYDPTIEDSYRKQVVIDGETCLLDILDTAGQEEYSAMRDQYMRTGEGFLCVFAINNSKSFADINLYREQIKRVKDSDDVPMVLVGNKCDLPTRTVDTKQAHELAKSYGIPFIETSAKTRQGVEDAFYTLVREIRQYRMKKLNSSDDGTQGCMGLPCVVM
Method: (§1) Surface plasmon resonance was used to analyze the binding affinity of compounds for KRAS, NRAS, and HRAS. The apparatus used was Biacore 8K, 8K+, or T200 (GE Healthcare), and the running buffer used was HBS (10 mM HEPES-NaOH, 150 mM NaCl, pH 7.4) containing 1 mM DTT, 10 mM MgCl2, 0.01% Tween 20, 10 µM GDP, and 4% DMSO.
(§2) Biotinylated Avi-tag fusion KRAS, NRAS, and HRAS proteins were expressed in E. coli BL21 (DE3) strains, and after cells were homogenized, they were purified using Streptavidin Mutein Matrix and Superdex 75. After purification, GDP-loaded KRAS, NRAS, and HRAS proteins were immobilized on the surface of Sensor Chip CAP (Cytiva) coated with Biotin CAPture Reagent in an immobilization amount of about 100 to 300 RU. Binding of each compound was evaluated by the Single Cycle Kinetics method, and a running buffer or a compound solution was added to the RAS protein non-immobilized surface and the immobilized surface to obtain a binding response. The flow rate was set to 100 µL/min, and in the compound-adding cycle, compound solutions having different concentrations were intermittently added for 75 seconds each, starting from a low concentration. […] In the blank cycle, a running buffer was intermittently added and not the compound solution. The Biotin CAPture Reagent and RAS proteins were immobilized for each cycle, and at the end of each cycle, the sensor chip was regenerated by the regeneration solution appended to the Biotin CAPture Kit (Cytiva). Measurement was carried out at 30°C.
(§3) The resulting sensorgram was subjected to curve fitting based on a 1:1 binding model on Biacore Insight Evaluation Software or T200 Evaluation Software, and thereby the dissociation constant KD of each compound with respect to KRAS, NRAS, and HRAS was determined. […] Blank indicates a compound from which the KD value with respect to NRAS or HRAS was not obtained.

HRAS wild-type protein = HRAS wild-type protein (Homo sapiens, UniProt P01112); test: Binding to HRAS by surface plasmon resonance (SPR), KD and KD ratio to KRAS; conditions: ratio of KD for HRAS wild-type protein to KD for KRAS
Sequence of HRAS wild-type protein (P01112 whole entry): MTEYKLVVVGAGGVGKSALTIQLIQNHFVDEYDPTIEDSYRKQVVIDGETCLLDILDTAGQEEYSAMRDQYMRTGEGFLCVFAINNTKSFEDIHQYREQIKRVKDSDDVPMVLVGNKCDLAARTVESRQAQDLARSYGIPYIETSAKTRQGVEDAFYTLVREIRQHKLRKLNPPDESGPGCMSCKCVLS
Method: as §1, §2, §3

[2] = test system: human lung cancer strain NCI-H441; type: cell-based
Method: A test compound was dispensed into a U-bottom 384-well plate as 40 nL serially diluted dimethyl sulfoxide solutions using a liquid handler Echo (LABCYTE). […] This cell suspension was dispensed in an amount of 40 µL per well into a plate containing the test compound, and cultured at 37°C in a 5% carbon dioxide gas incubator. Four days later, 20 µL of CellTiter-Glo (registered trademark) (Promega) was added to each well and […] was measured. […]

Structure (SMILES): CC[C@H](C)[C@@H]1NC(=O)[C@H](CC(C)C)N(C)C(=O)C[C@@H](C(=O)N2CCOCC2)N(C)C(=O)[C@H](C2CCCC2)N(C)C(=O)C2(CCCC2)NC(=O)[C@@H]2CCCN2C(=O)[C@H](CCc2ccc(C(F)(F)F)c(Cl)c2)NC(=O)CN(C)C(=O)[C@H](Cc2ccccc2)N(C)C(=O)[C@@H]2CCN2C(=O)[C@H](C)N(C)C1=O [PP0011] ([NMeL]I[NMeA][Aze][NMeF][Sar][hPhe(3-Cl-4-CF3)]P[Ac5c][NMeGly(cPent)][NMeD]-Morpholide; lactam N-11)
- NRAS /KRAS [1]: C (A compound having a KD ratio of 0.1 or more and less than 3 is denoted as C)
- HRAS /KRAS (HRAS wild-type protein): C (A compound having a KD ratio of 0.1 or more and less than 3 is denoted as C)
- IC50 [2]: 5.8 nM

Structure (SMILES): CC[C@H](C)[C@@H]1NC(=O)[C@H](CC(C)C)N(C)C(=O)C[C@@H](C(=O)N2CCOCC2)N(C)C(=O)[C@H](C2CCCC2)N(C)C(=O)C2(CCCC2)NC(=O)[C@@H]2C[C@@H](O)CN2C(=O)[C@H](CCc2ccc(C(F)(F)F)c(Cl)c2)NC(=O)CN(C)C(=O)[C@H](Cc2ccc(C)cc2)N(CC)C(=O)[C@@H]2CCN2C(=O)[C@H](C)N(C)C1=O [PP0013] ([NMeL]I[NMeA][Aze][NEtPhe(4-Me)][Sar][hPhe(3-Cl-4-CF3)][Hyp][Ac5c][NMeGly(cPent)][NMeD]-Morpholide; lactam N-11)
- NRAS /KRAS [1]: C (A compound having a KD ratio of 0.1 or more and less than 3 is denoted as C)
- HRAS /KRAS (HRAS wild-type protein): C (A compound having a KD ratio of 0.1 or more and less than 3 is denoted as C)
- IC50 [2]: 9.8 nM

Structure (SMILES): CCO[C@@H]1C[C@H]2C(=O)NC3(CCCC3)C(=O)N(C)[C@@H](C3CCCC3)C(=O)N(C)[C@H](C(=O)N3CCOCC3)CC(=O)N(C)[C@@H](CC(C)C)C(=O)N[C@@H]([C@@H](C)CC)C(=O)N(C)[C@@H](C)C(=O)N3CC[C@H]3C(=O)N(CC)[C@@H](Cc3ccc(C)cc3)C(=O)N(C)CC(=O)N[C@@H](CCc3ccc(C(F)(F)F)c(Cl)c3)C(=O)N2C1 [PP0014] ([NMeL]I[NMeA][Aze][NEtPhe(4-Me)][Sar][hPhe(3-Cl-4-CF3)][Hyp](Et)[Ac5c][NMeGly(cPent)][NMeD]-Morpholide; lactam N-11)
- NRAS /KRAS [1]: C (A compound having a KD ratio of 0.1 or more and less than 3 is denoted as C)
- HRAS /KRAS (HRAS wild-type protein): C (A compound having a KD ratio of 0.1 or more and less than 3 is denoted as C)
- IC50 [2]: 2 nM

Structure (SMILES): CC[C@H](C)[C@@H]1NC(=O)[C@H](CC(C)C)N(C)C(=O)C[C@@H](C(=O)N2CCOCC2)N(C)C(=O)[C@H](C(C)C)N(C)C(=O)C2(CCCC2)NC(=O)[C@@H]2CCCN2C(=O)[C@H](CCc2ccc(C(F)(F)F)c(Cl)c2)NC(=O)CN(C)C(=O)[C@H](Cc2ccc(C)cc2)N(CC)C(=O)[C@@H]2CCN2C(=O)[C@H](C)N(C)C1=O [PP0015] ([NMeL]I[NMeA][Aze][NEtPhe(4-Me)][Sar][hPhe(3-Cl-4-CF3)]P[Ac5c][NMeV][NMeD]-Morpholide; lactam N-11)
- NRAS /KRAS [1]: C (A compound having a KD ratio of 0.1 or more and less than 3 is denoted as C)
- HRAS /KRAS (HRAS wild-type protein): C (A compound having a KD ratio of 0.1 or more and less than 3 is denoted as C)
- IC50 [2]: 24.5 nM

Structure (SMILES): CC[C@H](C)[C@@H]1NC(=O)[C@H](CC(C)C)N(C)C(=O)C[C@@H](C(=O)N2CCOCC2)N(C)C(=O)[C@H](CC(C)C)N(C)C(=O)C2(CCCC2)NC(=O)[C@@H]2CCCN2C(=O)[C@H](CCc2ccc(C(F)(F)F)c(Cl)c2)NC(=O)CN(C)C(=O)[C@H](Cc2ccc(C)cc2)N(CC)C(=O)[C@@H]2CCN2C(=O)[C@H](C)N(C)C1=O [PP0016] ([NMeL]I[NMeA][Aze][NEtPhe(4-Me)][Sar][hPhe(3-Cl-4-CF3)]P[Ac5c][NMeL][NMeD]-Morpholide; lactam N-11)
- NRAS /KRAS [1]: C (A compound having a KD ratio of 0.1 or more and less than 3 is denoted as C)
- HRAS /KRAS (HRAS wild-type protein): C (A compound having a KD ratio of 0.1 or more and less than 3 is denoted as C)
- IC50 [2]: 24.6 nM

Structure (SMILES): CC[C@H](C)[C@@H]1NC(=O)[C@H](CC(C)C)N(C)C(=O)C[C@@H](C(=O)N2CCOCC2)N(C)C(=O)[C@H](C2CCCC2)N(C)C(=O)C2(CCCC2)NC(=O)[C@@H]2CCCN2C(=O)[C@H](CCc2ccc(C(F)(F)F)c(Cl)c2)NC(=O)CN(C)C(=O)[C@H](Cc2ccc(C)cc2)N(C)C(=O)CN(C)C(=O)CN(C)C1=O [PP0018] ([NMeL]I[Sar][Sar][NMePhe(4-Me)][Sar][hPhe(3-Cl-4-CF3)]P[Ac5c][NMeGly(cPent)][NMeD]-Morpholide; lactam N-11)
- NRAS /KRAS [1]: C (A compound having a KD ratio of 0.1 or more and less than 3 is denoted as C)
- HRAS /KRAS (HRAS wild-type protein): C (A compound having a KD ratio of 0.1 or more and less than 3 is denoted as C)
- IC50 [2]: 7 nM

Structure (SMILES): CC[C@H](C)[C@@H]1NC(=O)[C@H](CC(C)C)N(C)C(=O)C[C@@H](C(=O)N2CCOCC2)N(C)C(=O)[C@H](C2CCCC2)N(C)C(=O)C2(CCCC2)NC(=O)[C@@H]2CCCN2C(=O)[C@H](CCc2ccc(C(F)(F)F)c(Cl)c2)NC(=O)CN(C)C(=O)[C@H](Cc2ccc(C)cc2)N(C)C(=O)CN(CC)C(=O)CN(C)C1=O [PP0019] ([NMeL]I[Sar][NEtG][NMePhe(4-Me)][Sar][hPhe(3-Cl-4-CF3)]P[Ac5c][NMeGly(cPent)][NMeD]-Morpholide; lactam N-11)
- NRAS /KRAS [1]: C (A compound having a KD ratio of 0.1 or more and less than 3 is denoted as C)
- HRAS /KRAS (HRAS wild-type protein): C (A compound having a KD ratio of 0.1 or more and less than 3 is denoted as C)
- IC50 [2]: 6.7 nM

Structure (SMILES): CCCN1CC(=O)N(C)[C@@H](Cc2ccc(C)cc2)C(=O)N(C)CC(=O)N[C@@H](CCc2ccc(C(F)(F)F)c(Cl)c2)C(=O)N2CCC[C@H]2C(=O)NC2(CCCC2)C(=O)N(C)[C@@H](C2CCCC2)C(=O)N(C)[C@H](C(=O)N2CCOCC2)CC(=O)N(C)[C@@H](CC(C)C)C(=O)N[C@@H]([C@@H](C)CC)C(=O)N(C)CC1=O [PP0020] ([NMeL]I[Sar][NPrGly][NMePhe(4-Me)][Sar][hPhe(3-Cl-4-CF3)]P[Ac5c][NMeGly(cPent)][NMeD]-Morpholide; lactam N-11)
- NRAS /KRAS [1]: C (A compound having a KD ratio of 0.1 or more and less than 3 is denoted as C)
- HRAS /KRAS (HRAS wild-type protein): C (A compound having a KD ratio of 0.1 or more and less than 3 is denoted as C)
- IC50 [2]: 9.9 nM

Structure (SMILES): CCCCN1CC(=O)N(C)[C@@H](Cc2ccc(C)cc2)C(=O)N(C)CC(=O)N[C@@H](CCc2ccc(C(F)(F)F)c(Cl)c2)C(=O)N2CCC[C@H]2C(=O)NC2(CCCC2)C(=O)N(C)[C@@H](C2CCCC2)C(=O)N(C)[C@H](C(=O)N2CCOCC2)CC(=O)N(C)[C@@H](CC(C)C)C(=O)N[C@@H]([C@@H](C)CC)C(=O)N(C)CC1=O [PP0021] ([NMeL]I[Sar][NBuGly][NMePhe(4-Me)][Sar][hPhe(3-Cl-4-CF3)]P[Ac5c][NMeGly(cPent)][NMeD]-Morpholide; lactam N-11)
- NRAS /KRAS [1]: C (A compound having a KD ratio of 0.1 or more and less than 3 is denoted as C)
- HRAS /KRAS (HRAS wild-type protein): C (A compound having a KD ratio of 0.1 or more and less than 3 is denoted as C)
- IC50 [2]: 9.8 nM

Structure (SMILES): CC[C@H](C)[C@@H]1NC(=O)[C@H](CC(C)C)N(C)C(=O)C[C@@H](C(=O)N2CCOCC2)N(C)C(=O)[C@H](C2CCCC2)N(C)C(=O)C2(CCCC2)NC(=O)[C@@H]2CCCN2C(=O)[C@H](CCc2ccc(C(F)(F)F)c(Cl)c2)NC(=O)CN(C)C(=O)[C@H](Cc2ccc(C)cc2)N(CC)C(=O)CN(C)C(=O)CN(C)C1=O [PP0022] ([NMeL]I[Sar][Sar][NEtPhe(4-Me)][Sar][hPhe(3-Cl-4-CF3)]P[Ac5c][NMeGly(cPent)][NMeD]-Morpholide; lactam N-11)
- NRAS /KRAS [1]: B (a compound having 3 or more and less than 10 is denoted as B)
- HRAS /KRAS (HRAS wild-type protein): C (A compound having a KD ratio of 0.1 or more and less than 3 is denoted as C)
- IC50 [2]: 14.4 nM
